How the values were obtained:
[1] = Crystallization from hot saturated solutions by slow cooling; format: physicochemical; conditions: for Comments / XRPD: hot saturated solution
Experimental: Samples with no precipitates were put in −20° C. freezer for crystallization. Precipitates were collected by centrifuged. Solid parts (wet cakes) were investigated by XRPD.

[2] = HepG2 in vitro viability assay (CellTiter-Glo, 72 hours); format: cell-based, human; conditions: human, HepG2 cells, 72-hour treatment
Experimental: (§1) This assay assessed the general cytotoxicity of Compound 1 using the human hepatocarcinoma cell line HepG2. HepG2 cells were treated with Compound 1 for 72 hours and cellular viability was measured following the addition of CellTiter-Glo® 2.0 reagent (Promega) according to manufacturer's instructions. Agents were solubilized in DMSO and tested in the HepG2 cell line at concentrations ranging from 0.3 nM to 10 μM.
(§2) HepG2 cells were obtained from ATCC (Catalog No. HB-8065, Manassas, VA, USA) and maintained in MEM medium (Catalog No. 11095080, ThermoFisher Scientific, Waltham, MA, USA) supplemented with 10% heat inactivated fetal bovine serum (FBS) (Catalog No. 16000-044, Gibco, Grand Island, NY, USA) at 37° C. in an atmosphere of 5% CO2 in air. The cells were routinely sub-cultured to maintain cell density between 3×10^5-1.5×10^6 cells/mL, not to exceed 20 passages. Cells were washed with PBS, trypsinized for 5 min at 37° C., and resuspended in growth media. An aliquot was diluted 2× with Trypan Blue solution 0.4% (Catalog No. 15250061, ThermoFisher Scientific, Waltham, MA, USA) and cell count was determined. Cell concentration was adjusted with growth media to 1.0×10^4 cells/mL.
(§3) Compound 1 was prepared by dissolving neat compound in DMSO (Catalog No. D8418, Sigma-Aldrich, Inc., St. Louis, MO, USA) to generate 10 mM stock solution and stored at −20° C. 10 mM DMSO stock solution of Compound 1 was serially diluted (half log) in DMSO to generate 10-point dose series ([…]) in acoustic ready 384-well low dead volume microplates (Catalog No. LP-0200, Beckman Coulter Life Sciences, Indianapolis, IN, USA). Using an Echo 550 Acoustic Liquid Handler Handler (Beckman Coulter Life Sciences, Indianapolis, IN, USA), 50 nL of serially diluted compound solutions were dispensed directly in quadruplicate to each 384-well black TC-treated microplate (Catalog No. 3571, Corning, Glendale, CA, USA). 50 nL DMSO was transferred to all control wells.
(§4) 50 μL HepG2 cells suspended in growth media at 1.0×10^4 cells/mL (500 cells/well) were dispensed using a Multidrop Combi Reagent Dispenser (Catalog No. 5840300, ThermoFisher Scientific, Waltham, MA, USA) to each well of 384-well black TC-treated microplates containing quadruplicate concentration range of test compound and DMSO controls. Plates were incubated at 37° C., 5% CO2 for 72 hours. Final concentration of DMSO was 0.1% for all samples.
(§5) Additional cell plates (TO plates) were prepared by dispensing cells into a blank 384-well black TC-treated microplate to represent cytostatic controls and processed for viability detection immediately after cell dispensing.
(§6) HepG2 cell viability was determined based on quantification of ATP using CellTiter-Glo® 2.0 luminescent assay kit (Catalog No. G9243, Promega, Madison, WI, USA), which signals the presence of metabolically active cells. On Day 0 (Time 0) and Day 3 (72 hours) 25 μL CellTiter-Glo® reagent was added to each well of cell plates except the wells in column 24 and the luminescence was measured after 4 hours incubation at room temperature using an EnVision® Multilabel Reader (Catalog No. 2104-0010, Perkin Elmer Inc., Dumfries, VA, USA). Column 24 (cells without CellTiter-Glo® addition) was used as plate background or positive control (P).
(§7) Cytostatic control value (CT0) was computed from TO plate read using untreated cell signals (UT=0) and positive control signals (PT=0) as below.
(§8) Percent response of compound-treated samples at a time point T were calculated by normalizing the signal with P and DMSO treated negative (N) controls on the same microtiter plate and the CT0 control:
(§9) The Response % is thus 100% if the CellTiter-Glo® signal equals that of the DMSO treated controls (i.e., normal cell growth), 0% if it equals that of untreated cell at TO (i.e., cytostasis), and −100% if it equals the no CellTiter-Glo® reagent controls (i.e., complete cytotoxicity). […]

[3] = system: HepG2 cells; experiment: as above; format: cell-based, human; conditions: 72 hours
Experimental: as §1, §2, §3, §4, §5, §6, §7, §8, §9

[4] = system: HSSYII synovial sarcoma cell line; experiment: Global proteomics in HSSYII cells; format: cell-based, human; conditions: 100 nM, 4 hours
Experimental: Global protein expression was performed in Yamato-SS and HSSYII synovial sarcoma cell lines after 4-hour treatment with Compound 1 (100 nM). The Yamato-SS cell line was provided by the RIKEN BRC through the National BioResource Project of the MEXT/AMED, Japan (cat #RCB3577), and the HS-SY-II cell line was provided by the RIKEN BRC through the National BioResource Project of the MEXT/AMED, Japan (cat #RCB2231).
Both Yamato-SS and HSSYII cell lines were treated with Compound 1 at 100 nM for 4 hours and analyzed by multiplexed quantitative proteomics. The x-axis illustrates the totality of the proteomics data and is labeled as fold change (FC) of Compound 1 vs vehicle in a Log 2 transformation scale. The statistical significance (T-test of treated vs. DMSO with Benjamini-Hochberg correction applied) of the observed changes is shown in the y-axis as negative Log 10 of the P-value. The horizontal dashed line marks the statistical significance (P-value ≤0.001) and the vertical line marks fold change ≥2.

COc1cc(-c2cn(C)c(=O)c(C)c2C)cc(OC)c1CN1CC[C@H](N2CCN(c3ccc(N[C@H]4CCC(=O)NC4=O)cc3F)CC2)C(F)(F)C1 [Compound 1, (S)-3-((4-(4-((S)-1-(2,6-dimethoxy-4-(1,4,5-trimethyl-6-oxo-1,6-dihydropyridin-3-yl)benzyl)-3,3-difluoropiperidin-4-yl)piperazin-1-yl)-3-fluorophenyl)amino)-piperidine-2,6-dione]
Comments: form after seeding ([1]; 2-MeTHF, add Pattern G as seeds, slurry for 5 days): Pattern G
Comments ([1]; 2-MeTHF): Clear solution
XRPD ([1]; Acetone): Pattern B
XRPD ([1]; Ethanol): Pattern F
Comments ([1]; Ethyl acetate): Clear solution
Comments ([1]; Methanol): Clear solution
viability at 72 h, 0.00032 µM ([2]; 0.32 nM): 111%
viability at 72 h, 0.00101 µM ([2]; 1.01 nM): 102%
viability at 72 h, 0.00317 µM ([2]; 3.17 nM): 97.7%
viability at 72 h, 0.01 µM ([2]; 10.0 nM): 91.6%
viability at 72 h, 0.0317 µM ([2]; 31.7 nM): 97.4%
viability at 72 h, 0.1 µM ([2]; 100 nM): 92.5%
viability at 72 h, 0.317 µM ([2]; 317 nM): 102%
viability at 72 h, 1 µM ([2]; 1000 nM): 79%
viability at 72 h, 3.161 µM ([2]; 3161 nM): 84.6%
viability at 72 h, 9.99 µM ([2]; 9990 nM): 66.6%
inhibition at 10 µM ([3]; Homo sapiens, HepG2, read-out: growth inhibition of HepG2 cells relative to 0.1% DMSO controls, 10 μM): 33.4 ± 9.9%
effect on viability / growth of HepG2 cells ([3]; concentrations up to 3.3 μM): No significant effect
BRD9 protein level decrease vs DMSO control [4]: 66.7%
Emax at 0.1 µM ([4]; Homo sapiens, read-out: BRD9 Emax): 33.3%

Source: US20240245677A1, “SELECTED COMPOUNDS FOR TARGETED DEGRADATION OF BRD9” (C4 THERAPEUTICS, INC., priority 2021, published 2024)
